Bridge positions count the residues as written; N and C are the ends. Peptide text beside a SMILES is read from it.

Data set [1] can be described thus: In vitro release of PXL01 from sodium hyaluronate gel. Type of data set: physicochemical. The conditions noted are these: 6 mg/ml PXL01 in 1.5% sodium hyaluronate, 37° C., PBS pH 7.4, within 1 hour. The method, then:
(§1) PXL01 dissolved in sodium chloride solution was added to 2.5% sodium hyaluronate solution at a volume ratio of 2/5 PXL01 solution and 3/5 sodium hyaluronate solution, to obtain 1.5 or 6 mg/ml PXL01 in 1.5% sodium hyaluronate. The solutions were homogenized by drawing the mixtures several times through 2.1 mm diameter needles.
0.25 ml of the formulated product was placed into the well of the tissue culture plate (24-Flat Well Tissue Culture Plate, Techno Plastic Products AG), resulting in a thin film of approximately 1.3 mm. The plates were placed into thermostat (37° C.) for 1 h to allow the product to reach the temperature of 37° C. 0.5 ml of the release medium (PBS, pH 7.4) re-equilibrated at 37° C. was carefully layered over the surface of the gel and the tissue culture plates were transferred into a thermostatic shaker (60 rpm, 37° C.). At predetermined time intervals, 10 microl aliquots of the aqueous solution were withdrawn from the release media. The concentration of PXL01 released was monitored at wavelength of 230 nm using a spectrophotometric measurement. Because the measurement of absorbance at 230 nm could detect the peptide as well as dissolved sodium hyaluronate in the release medium, a control release medium was used which has the same amount of sodium hyaluronate without any PXL01 as that of sodium hyaluronate with the drug.

Data set [2] concerns post-surgical intra-abdominal adhesions. Nature of the data set: Sidewall defect-cecum abrasion model in rat (post-surgical adhesion prevention). Format: in vivo, Sprague-Dawley rats. The conditions noted are these: for adhesion formation compared with control group: rat, 6 days after surgery. The method, then: Female Sprague-Dawley rats (200-250 g, Charles River Laboratories, Sulzfeldt, Germany) were kept in a 12 hours light-dark cycle and were cared for in accordance with regulations for the protection of laboratory animals. The study was performed after prior approval from the local ethical committee.
Cecum abrasion and excision of the abdominal wall were performed to induce de novo adhesions as described previously (Harris et al. 1995. Analysis of the kinetics of peritoneal adhesion formation in the rat and evaluation of potential antiadhesive agents. Surgery 117, 663-669). Briefly, the rats were anaesthetized with isoflurane (Isoba®vet, Shering-Plough Animal Health, Farum, Denmark) and buprenorfin (48 microg/kg, Temgesic, Shering-Plough, Brussels, Belgium) was given as post-operative pain reliever. A 5-cm-long midline incision of the abdomen was performed and a rectangle full thickness injury (5 mm×25 mm) was made on the peritoneal wall through both the parietal peritoneum and the muscular fascia. Also, an area of the serous membrane on the both sides of the cecum, approximately 10 mm×15 mm, was gently rubbed using cotton gauze until petechial hemorrhages appeared. The rats were randomized to untreated control group or treated groups. Excessive blood from the injury was removed and the test substance was applied over the abraded areas using a syringe. The laparotomy wound was closed with a continuous suture and the skin was closed with metal clips (Appose ULC35W, TycoHealthcare Group LP, Norwalk, Conn., US). […] The abdomen was opened and the adhesions were scored by an evaluator blinded to the treatment. The incidence of adhesions between abdominal incision and the abraded cecum was quantified as a percentage of animals developing wall to wall adhesions connecting these injuries, in each group. […] Finally, the percentage of rats free from any abdominal adhesions was assessed in each group. Any possible signs of peritoneal inflammation (erythema and/or edema) or disrupted wound healing were recorded in connection to the necropsies. […]

Data set [3] is described as follows: Solubility and stability of PXL01 in sodium hyaluronate. Type of data set: physicochemical. The method, then: as §1
PXL01 concentration and homogeneity in sodium hyaluronate were determined by high performance liquid chromatography with UV detector (Agilent model 1100) at 220 nm. The analytical column used was a Vydac 218TP (C18, 5 μm, 250×4.6 mm). The mobile phases used (0.1% TFA in water containing 1% acetonitrile (solvent A) and 0.1% TFA in acetonitrile (solvent B)) were run at a gradient with a flow rate of 1.0 ml/min. Diluted PXL01 standards were applied to create calibration curves.
Samples were prepared by adding hyaluronidase solution (Hyaluronidase from Streptomyces hyalurolyticus, Sigma-Aldrich, St Louis, Mo.) with an enzyme activity of 500 units/ml to sample solutions. The mixtures were agitated for 2 h at room temperature and samples were diluted as needed with TFA in water, followed by additional mixing. The samples were centrifuged at 7000 rpm for 5 min before injection to the column.

With `CC[C@H](C)[C@H](NC(=O)[C@@H]1CSSC[C@H](NC(=O)[C@H](CCCCN)NC(=O)[C@@H](NC(=O)[C@H](C)NC(=O)[C@H](CCC(=O)O)NC(C)=O)[C@@H](C)O)C(=O)N[C@@H](Cc2ccccc2)C(=O)N[C@@H](CCC(N)=O)C(=O)N[C@@H](Cc2c[nH]c3ccccc23)C(=O)N[C@@H](CCC(N)=O)C(=O)N[C@@H](CCCNC(=N)N)C(=O)N[C@@H](CC(N)=O)C(=O)N[C@@H](CCSC)C(=O)N[C@@H](CCCNC(=N)N)C(=O)N[C@@H](CCCCN)C(=O)N[C@@H](C(C)C)C(=O)N[C@@H](CCCNC(=N)N)C(=O)NCC(=O)N2CCC[C@H]2C(=O)N2CCC[C@H]2C(=O)N[C@@H](C(C)C)C(=O)N[C@@H](CO)C(=O)N1)C(=O)N[C@@H](CCCCN)C(=O)N[C@@H](CCCNC(=N)N)C(N)=O` [PXL01] (Ac-EATKCFQWQRNMRKVRGPPVSCIKR-NH2; disulfide 5-22), the “PXL01 released from the sodium hyaluronate gel formulation (cumulative drug released)” value in data set [1] was “approximately 70%”. Besides, the “adhesion formation compared with control group” value in data set [2] (3 mg of PXL01 in water solution, single dose in connection to the surgery) is “No significant reduction”; in data set [2] (3 doses of 1 mg of PXL01 in water solution (at operation, 24 and 48 h post-surgery)), “marked reduction”. In addition, the “adverse events (listlessness, peritoneal inflammation, inhibition of wound healing)” value in data set [2] (rats treated with PXL01 at any concentration) is reported as “No obvious adverse events”. Further, in data set [3], the “solubility in sodium hyaluronate” value was “readily soluble”. Also, in data set [3], the “stability in sodium hyaluronate” value was “sufficiently stable”.

Values taken from patent US11000574B2, “Hyaluronic acid containing compositions for prevention of the formation of post-surgical scars and post-surgical adhesions” (PERGAMUM AB, priority 2009, dated 2021).
